Like-named read-outs stand apart in the source and are kept apart here.

Assay type in all cases: in vivo
For test [1], the system named is blackgrass (Alopecurus myosuroides). The test can be described thus: Test A postemergence. The following applies: Alopecurus myosuroides, post-emergence, 240 h; for pest or weed control at 125 g/ha: 125 g ai/ha; for pest or weed control at 500 g/ha: 500 g ai/ha. A digest of the protocol: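 Compounds were formulated in a non-phytotoxic solvent mixture with surfactant and applied as a preemergence directed soil spray after seeding, or sprayed postemergence over plants 2 to 10 cm tall at the one- to two-leaf stage. Evaluation after about 10 d compared treated with untreated controls, using a scale from 0 (no effect) to 100 (complete control).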

Test [2] has as its system ducksalad (Heteranthera limosa). As to the kind of experiment: Test B flooded paddy test. Conditions: Heteranthera limosa, Flood, 250 g ai/ha. The method, boiled down: (§1)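 Plants at 2-leaf stage flooded to 3 cm above soil, with compounds applied directly to paddy water and that depth maintained. Plants kept in greenhouse 13–15 d. Visual rating versus controls on a 0 (no effect) to 100 (complete control) scale.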

The subject of the next test is rice (Oryra sativa). The test can be described thus: Test B flooded paddy test. Conditions: Oryza sativa, Flood, 250 g ai/ha. A digest of the protocol: as §1
In test [3] the test system is sedge, umbrella (small-flower umbrella sedge, Cyperus difformis). The test can be described thus: Test B flooded paddy test. The following applies: Cyperus difformis, Flood, 250 g ai/ha. The method, boiled down: as §1
The subject of test [4] is barnyardgrass (Echinochloa crus-galli). The test can be described thus: Test B flooded paddy test. The following applies: Echinochloa crus-galli, Flood, 250 g ai/ha. A digest of the protocol:
as §1

[5] abbreviates: postemergence, visual injury after approximately 10 d, 0 to 100 scale (0 no effect, 100 complete control), read-out: Plant response rating, Blackgrass.
Setting [6] is: scale of 0 to 100 where 0 is no effect and 100 is complete control, read-out: Ducksalad plant response rating.
Where [7] appears, read: scale of 0 to 100 where 0 is no effect and 100 is complete control, read-out: Rice plant response rating.
[8] abbreviates: scale of 0 to 100 where 0 is no effect and 100 is complete control, read-out: Sedge, Umbrella plant response rating.
Setting [9] is: scale of 0 to 100 where 0 is no effect and 100 is complete control, read-out: Barnyardgrass plant response rating.
[10] abbreviates: Postemergence, visual rating about 10 d after treatment, read-out: Blackgrass plant response rating (0 to 100 scale).
The mark [11] stands for this setting: Postemergence, visual injury, 0 to 100 scale (0 no effect, 100 complete control), approx. 10 d, read-out: Plant response rating, Blackgrass.
[12] abbreviates: 0 to 100 scale where 0 is no effect and 100 is complete control, read-out: Ducksalad plant response rating.
The mark [13] stands for this setting: 0 to 100 scale where 0 is no effect and 100 is complete control, read-out: Rice plant response rating.
The mark [14] stands for this setting: 0 to 100 scale where 0 is no effect and 100 is complete control, read-out: Sedge, Umbrella plant response rating.
Where [15] appears, read: 0 to 100 scale where 0 is no effect and 100 is complete control, read-out: Barnyardgrass plant response rating.
[16] abbreviates: postemergence, visual injury vs untreated controls after approx. 10 d, 0 = no effect, 100 = complete control, read-out: Blackgrass plant response rating (0 to 100 scale).
Setting [17] is: postemergence, 0 to 100 scale, 0 is no effect, 100 is complete control, read-out: Blackgrass plant response rating.
The mark [18] stands for this setting: 360 h, visually evaluated after 13 to 15 d, read-out: Plant response rating, Ducksalad (0 to 100 scale where 0 is no effect and 100 is complete control).
Where [19] appears, read: 360 h, visually evaluated after 13 to 15 d, read-out: Plant response rating, Rice (0 to 100 scale where 0 is no effect and 100 is complete control).
Setting [20] is: 360 h, visually evaluated after 13 to 15 d, read-out: Plant response rating, Sedge, Umbrella (0 to 100 scale where 0 is no effect and 100 is complete control).
Where [21] appears, read: 360 h, visually evaluated after 13 to 15 d, read-out: Plant response rating, Barnyardgrass (0 to 100 scale where 0 is no effect and 100 is complete control).

Consider `Cc1ccc([C@H]2CNC(=S)[C@@H]2C(=O)Nc2cccc(F)c2C)cc1C` [Compound 764], for which the pest or weed control at 125 g/ha in test [1] (setting [5]) turned out to be 0%. Further, the pest or weed control at 250 g/ha in test [2] (setting [6]) worked out at 90%; with rice (Oryra sativa) (setting [7]), 0%; in test [3] (setting [8]) it was 0%; in test [4] (setting [9]), 50%.
In the case of `CSc1ccccc1NC(=O)[C@H]1C(=S)NC[C@@H]1c1ccc(C)c(C)c1` [Compound 766], the pest or weed control at 125 g/ha in test [1] (setting [5]) was found to be 0%. The pest or weed control at 250 g/ha in test [2] (setting [6]) was 85%; in the test with rice (Oryra sativa) (setting [7]) it was 0%; in test [3] (setting [8]), 60%; in test [4] (setting [9]), 0%.
With `Cc1ccc([C@H]2CNC(=O)[C@@H]2C(=O)Nc2cccc(F)c2F)s1` [Compound 729], the pest or weed control at 125 g/ha in test [1] (setting [5]) came out at 0%. Besides, the pest or weed control at 250 g/ha was determined as 100% in test [2] (setting [6]), 0% in the test on rice (Oryra sativa) (setting [7]), 0% in test [3] (setting [8]) and 60% in test [4] (setting [9]).
For `Cc1cc([C@H]2CN(C)C(=O)[C@@H]2C(=O)Nc2cccc(F)c2C)ccc1F` [Compound 1311], the pest or weed control at 125 g/ha in test [1] (setting [10]) stood at 60%. Moreover, in test [1] (setting [11]), the pest or weed control at 500 g/ha was 60%. The pest or weed control at 250 g/ha in test [2] (setting [12]) was determined as 100%; with rice (Oryra sativa) (setting [13]), 0%; in test [3] (setting [14]) it was 0%; in test [4] (setting [15]), 80%.
Regarding `Cc1cc([C@H]2CNC(=O)[C@@H]2C(=O)Nc2ccccc2F)ccc1F` [Compound 717], in test [1] (setting [5]), the pest or weed control at 125 g/ha is 0%. The pest or weed control at 250 g/ha in test [2] (setting [6]) was determined as 100%; with rice (Oryra sativa) (setting [7]) it was 0%; in test [3] (setting [8]), 0%; in test [4] (setting [9]), 60%.
Take `COc1ccc([C@H]2CN(C)C(=O)[C@@H]2C(=O)Nc2ccccc2F)c(OC)c1` [Compound 1215]: in test [1] (setting [16]), the pest or weed control at 125 g/ha came to 0%. Also, the pest or weed control at 500 g/ha in test [1] (setting [17]) came to 0%. For the same compound, the pest or weed control at 250 g/ha amounted to 70% in test [2] (setting [12]), 0% with rice (Oryra sativa) (setting [13]), 0% in test [3] (setting [14]) and 0% in test [4] (setting [15]).
For `COc1cc([C@H]2CN(C)C(=O)[C@@H]2C(=O)Nc2ccccc2F)cc(OC)c1OC` [Compound 1217], the pest or weed control at 125 g/ha in test [1] (setting [16]) came to 0%. Moreover, in test [1] (setting [17]), the pest or weed control at 500 g/ha was determined as 0%. Moreover, the pest or weed control at 250 g/ha stood at 40% in test [2] (setting [12]), 25% with rice (Oryra sativa) (setting [13]), 0% in test [3] (setting [14]) and 0% in test [4] (setting [15]).
Consider `CSc1ccccc1NC(=O)[C@H]1C(=O)N(C)C[C@@H]1c1ccc(C)c(C)c1` [Compound 733], for which, in test [1] (setting [5]), the pest or weed control at 125 g/ha was found to be 0%. The pest or weed control at 250 g/ha came out at 60% in test [2] (setting [6]), 0% in the test on rice (Oryra sativa) (setting [7]), 0% in test [3] (setting [8]) and 20% in test [4] (setting [9]).
On to `CC(F)(F)c1cccc([C@H]2CNC(=O)[C@@H]2C(=O)Nc2cccc(F)c2F)c1` [Compound 779], for which the pest or weed control at 125 g/ha in test [1] (setting [5]) was 70%. The pest or weed control at 250 g/ha in test [2] (setting [6]) worked out at 100%; in the test with rice (Oryra sativa) (setting [7]) it was 0%; in test [3] (setting [8]) it was 0%; in test [4] (setting [9]), 60%.
In the case of `Cc1ccc([C@H]2CN(C)C(=O)[C@@H]2C(=O)Nc2ccccc2F)cc1Cl` [Compound 1384], the pest or weed control at 125 g/ha in test [1] (Postemergence, visual injury after approx. 10 d, 0 to 100 scale, 0 no effect, 100 complete control, read-out: Plant response rating, Blackgrass) came out at 0%. In test [1] (setting [11]), the pest or weed control at 500 g/ha amounted to 30%. Also, the pest or weed control at 250 g/ha came to 100% in test [2] (setting [18]), 40% in the test with rice (Oryra sativa) (setting [19]), 0% in test [3] (setting [20]) and 65% in test [4] (setting [21]).
Turning to `CS(=O)(=O)c1ccccc1NC(=O)[C@H]1C(=O)NC[C@@H]1c1ccc(OC(F)F)cc1` [Compound 787], the pest or weed control at 125 g/ha in test [1] (setting [5]) came to 0%. Besides, the pest or weed control at 250 g/ha worked out at 50% in test [2] (setting [6]), 0% with rice (Oryra sativa) (setting [7]), 0% in test [3] (setting [8]) and 0% in test [4] (setting [9]).
In the case of `Cc1cc([C@H]2CNC(=O)[C@@H]2C(=O)Nc2ccccc2C(F)(F)F)ccc1Cl` [Compound 1245], the pest or weed control at 125 g/ha in test [1] (setting [16]) amounted to 30%. The pest or weed control at 500 g/ha in test [1] (setting [17]) came to 60%. Also, the pest or weed control at 250 g/ha in test [2] (setting [12]) was 90%; with rice (Oryra sativa) (setting [13]), 0%; in test [3] (setting [14]), 0%; in test [4] (setting [15]) it was 0%.
For `CN1C[C@H](c2cc(F)cc(F)c2)[C@@H](C(=O)Nc2ccccc2S(C)(=O)=O)C1=O` [Compound 739], the pest or weed control at 125 g/ha in test [1] (setting [5]) is 0%. For the same compound, the pest or weed control at 250 g/ha in test [2] (setting [6]) worked out at 100%; in the test with rice (Oryra sativa) (setting [7]) it was 0%; in test [3] (setting [8]), 0%; in test [4] (setting [9]), 60%.
As for `Cc1ccc([C@H]2CNC(=O)[C@@H]2C(=O)Nc2cccc(F)c2F)c(F)c1` [Compound 720], in test [1] (setting [5]), the pest or weed control at 125 g/ha came out at 20%. For the same compound, the pest or weed control at 250 g/ha amounted to 100% in test [2] (setting [6]), 0% in the test on rice (Oryra sativa) (setting [7]), 0% in test [3] (setting [8]) and 30% in test [4] (setting [9]).
Take `COc1cc([C@H]2CN(C)C(=O)[C@@H]2C(=O)Nc2ccccc2SC)ccc1F` [Compound 1301]: the pest or weed control at 125 g/ha in test [1] (setting [10]) is 0%. Moreover, in test [1] (setting [11]), the pest or weed control at 500 g/ha amounted to 0%. In addition, the pest or weed control at 250 g/ha was found to be 20% in test [2] (setting [12]), 0% in the test with rice (Oryra sativa) (setting [13]), 0% in test [3] (setting [14]) and 0% in test [4] (setting [15]).
As for `CSc1ccccc1NC(=O)[C@H]1C(=O)NC[C@@H]1c1ccc2c(c1)OCO2` [Compound 1257], the pest or weed control at 125 g/ha in test [1] (setting [16]) worked out at 0%. Besides, the pest or weed control at 500 g/ha in test [1] (setting [11]) amounted to 0%. For the same compound, the pest or weed control at 250 g/ha worked out at 0% in test [2] (setting [12]), 0% with rice (Oryra sativa) (setting [13]), 0% in test [3] (setting [14]) and 20% in test [4] (setting [15]).
Regarding `CN1C[C@H](c2ccc(C(F)(F)F)cc2)[C@@H](C(=O)Nc2ccc(F)c(F)c2F)C1=O` [Compound 745], the pest or weed control at 125 g/ha in test [1] (setting [5]) is 40%. The pest or weed control at 250 g/ha in test [2] (setting [6]) stood at 100%; with rice (Oryra sativa) (setting [7]), 40%; in test [3] (setting [8]) it was 0%; in test [4] (setting [9]) it was 70%.
Consider `C=CN1C[C@H](c2ccc(C)c(F)c2)[C@@H](C(=O)Nc2cccc(F)c2F)C1=O` (racemic) [Compound 1332], for which the pest or weed control at 125 g/ha in test [1] (setting [10]) was 0%. In addition, the pest or weed control at 500 g/ha in test [1] (setting [11]) is 30%. The pest or weed control at 250 g/ha in test [2] (setting [18]) was 100%; with rice (Oryra sativa) (setting [19]) it was 0%; in test [3] (setting [20]) it was 0%; in test [4] (setting [21]), 0%.
Turning to `CN1C[C@H](c2ccc(F)c(Br)c2)[C@@H](C(=O)Nc2cccc(F)c2F)C1=O` [Compound 1234], in test [1] (setting [16]), the pest or weed control at 125 g/ha was 30%. Further, in test [1] (setting [17]), the pest or weed control at 500 g/ha came out at 60%. The pest or weed control at 250 g/ha in test [2] (setting [12]) is 100%; with rice (Oryra sativa) (setting [13]) it was 75%; in test [3] (setting [14]) it was 0%; in test [4] (setting [15]), 90%.

For the origin of these results see patent US12077503B2, “Substituted cyclic amides and their use as herbicides” (FMC CORPORATION, priority 2015, dated 2024).
